US6743818B2, “Cyclobutaindolecarboxamide compounds” (Les Laboratoires Servier, priority 2000, dated 2004)

Legend:
[1] = tested on: Male mice of the NMRI strain; assay: Marble-burying test in the mouse; assay type: in vivo; conditions: s.c.; inhibition of spontaneous marble-burying, 30 minutes' free exploration
Text: This test allows evaluation of the capacity of pharmacological agents to inhibit the spontaneous marble-burying behaviour of mice, the inhibition being predictive of antidepressant and/or anti-impulsive action. Male mice of the NMRI strain (Iffa-Credo, l'Arbresle, France) weighing from 20 to 25 g on the day of the experiment are placed individually in Macrolon boxes (30×18×19 cm) containing 5 cm of sawdust and covered with a perforated plexiglass plate. Twenty four “tiger's eye” glass marbles are evenly distributed on the sawdust at the periphery of the box. At the end of 30 minutes' free exploration, the animals are removed from the box and the number of buried marbles is counted.

male Wistar rats = assay: Vogel conflict test; assay type: in vivo, rat; conditions: s.c.; for Punished licks (1 shock/20 licks): 3 minutes of test
Procedure: The test is carried out on male Wistar rats (IFFA-CREDO) weighing from 230 to 250 g, which are kept in groups of 4 on sawdust in cages in an animal house, with free access to food and drink, for 5 days before they are used, under the following conditions: temperature (21±1° C.), humidity (60±5%) and a 12 hour diurnal cycle (07:00 to 19:00 hours).
On the Monday following their arrival, the animals are transferred to the experiment room where they stay until Friday, the day of the test. For 4 days, from Monday to Thursday inclusive, the animals have access to drink for only one hour per day (from 09:00 to 10:00 hours).
On the day before the test, the animals are isolated from 15:00 hours in cages, on grills, without either food or drink.
The test is carried out in a transparent plastics cage located in a soundproofed and ventilated enclosure. The cage has a chrome steel floor. The metal tip of the bottle containing the drink enters the cage at a height of 6 cm above the metal floor. The floor and the tip of the bottle are connected by electric cables to an apparatus which records the licks of the animal and controls the administration of electric shocks. The apparatus is so regulated that the animal receives an electric shock (between tip and metal floor) every 20 licks of the tip.
On the day of the test, the animal is given an injection (s.c.) of physiological serum (control) or of the test product 30 minutes before being placed in the test cage. The session begins as soon as the animal has carried out 20 licks and received a first electric shock (duration 0.5 seconds, intensity 0.300 mA). For a period of 3 minutes, the animal receives an electric shock each time it carries out 20 licks.
The results are the numbers of licks and of shocks received by the animal during the 3 minutes of the test.
The numbers of licks and of shocks received by the treated animals are compared with those of the control animals by variance analysis, followed by a Dunnett's test with p<0.05. An anxiolytic product increases the number of licks and of shocks received by the animal compared with the controls. For information only, the average number of licks not punished in the animals which have been made thirsty is 674.9±44.5 (N=7) over 3 minutes.
The effectiveness of a product is expressed by the minimum effective dose (MED), that is to say, the lowest dose producing a significant difference compared with the controls. That dose is 2.5 mg/kg s.c. for the product of Example 1.

O=C(Nc1cccnc1)N1CCc2cc3c(cc21)CC3 [Example 1, N-(3-Pyridyl)-2,3,5,6-tetrahydro-1H-cyclobuta[f]indole1-carboxamide]
MED (minimum effective dose) [1]: 2.5 mg/kg | Punished licks (1 shock/20 licks) (male Wistar rats; dose 0.63 mg/kg, N=8): 197.5 ± 59.5 | Punished licks (1 shock/20 licks) (male Wistar rats; dose 2.5 mg/kg, N=8, *p < 0.05): 560.1 ± 67.0* | Punished licks (1 shock/20 licks) (male Wistar rats; dose 10.0 mg/kg, N=7, *p < 0.05): 499.3 ± 95.3* | minimum effective dose (MED) (male Wistar rats; 30 minutes before test, lowest dose producing a significant difference compared with the controls (p<0.05)): 2.5 mg/kg
